Assay results: PubChem BioAssay (NCI)
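Five compound concentrations were applied to cells in 96-well plates for 48 hours; endpoints were derived by simple linear interpolation of the resulting dose-response curve. GI50 = concentration required for 50% inhibition of growth. At the TGI there is no net growth.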

Experiments:
Experiment in all cases: NCI tumour cell line growth inhibition, 48 h
[1] = system: OVCAR-3 ovarian
[2] = system: NCI-H226 lung
[3] = system: COLO 205 colon
[4] = system: MALME-3M melanoma
[5] = system: ACHN renal
[6] = system: 786-0 renal
[7] = system: UO-31 renal
[8] = system: SF-539 CNS

SMILES | GI50 [1] [µM] | TGI [1] [µM] | GI50 [2] [µM] | TGI [2] [µM] | GI50 [3] [µM] | TGI [3] [µM] | GI50 [4] [µM] | TGI [4] [µM] | GI50 [5] [µM] | TGI [5] [µM] | GI50 [6] [µM] | TGI [6] [µM] | GI50 [7] [µM] | TGI [7] [µM] | TGI [8] [µM] | GI50 [8] [µM]
Cc1cccc2c1ccc1c3occ(C)c3c(=O)oc21 | > 100 | > 100 | > 100 | > 100 | > 100 | > 100 | > 100 | > 100 | > 100 | > 100 | > 100 | > 100 | > 100 | > 100 |  | 
COc1ccc(CCN2COc3ccc4ccc(=O)oc4c3C2)cc1OC |  | > 100 |  | > 100 |  | > 100 |  | > 100 |  | > 100 |  | > 100 |  | > 100 | > 100 | 
CS(=O)(=O)c1ccc(-c2[nH]c3ccc(F)cc3c2/C=N/NC(N)=S)cc1 | 0.446 | 12.1 | 3.28 | > 100 | 1.47 | 5.14 | 7.83 | 41 | 2.17 | > 100 | 0.605 | > 100 | 2.84 | > 100 | > 100 | 1.3
COc1ccc2cc(C(=O)/C=C/c3ccco3)ccc2c1 | 44 | > 100 |  |  | 51.2 | > 100 | 31 | > 100 | 29.4 | 79.1 | 10.4 | > 100 | 37.5 | > 100 |  | 
CC#CC(=O)N[C@H]1CCCN(c2c(F)cc(C(N)=O)c3[nH]c(C)c(C)c23)C1 | 21.9 | 63.7 | 21.1 | 51.6 | 21.3 | 47 | 16.2 | 34.3 | 16.4 | 42.8 | 19 | 56.6 | 15.9 | > 100 | 28.4 | 13.3
CN1CCN(CCCOc2ccc3nc(Nc4ccc(C(F)(F)F)c(Cl)c4)ccc3c2)CC1 | 1.64 | 3.46 |  |  | 1.7 | 3.49 |  |  | 1.74 | 3.31 | 1.67 | 3.21 | 1.72 | 3.68 |  | 
O=C(O)C1CCCCC1C(=O)Nc1nc2ccccc2[nH]1 (centres undefined) |  | > 100 |  | > 100 |  | > 100 |  | > 100 |  | > 100 |  | > 100 |  | > 100 | > 100 | 
O=C(O)CP(=O)(c1ccccc1)c1ccccc1.O=C(O)CP(=O)(c1ccccc1)c1ccccc1.[Cd] | 2.56 | 15.4 | 12.7 | 28.6 | 31.8 | > 100 | 0.536 | 3.76 | 16.1 | 30.4 | 19.3 | 60 | 21.6 | 49.1 | 26.2 | 11.4
Cc1[nH]c2ccccc2c1C1=CC(=O)C=CC1=O | 2.16 | 4.6 | 15.6 | 30.9 | 2.48 | 5.43 | 7.45 | 27.8 | 3.63 | 12.5 | 20.1 | 43.3 | 10.5 | 23.2 | 28.3 | 14.3
O=C1CCCC(=O)C1C(=O)c1ccc(C(F)(F)F)cc1[N+](=O)[O-] | > 100 | > 100 | > 100 | > 100 | > 100 | > 100 | > 100 | > 100 | > 100 | > 100 | > 100 | > 100 | > 100 | > 100 | > 100 | > 100
COCO[C@@H]1CC2C=Nc3cc(OCc4ccccc4)c(OC)cc3C(=O)N2C1 (some centres undefined) | 0.222 | 3.13 | 2.88 | 61.1 | 0.181 | 0.386 | 0.37 | 2.79 | 0.338 | 1.71 | 1.3 | 30.9 | 0.237 | 2.14 | 0.815 | 0.163
CNc1ccc(C(=O)CC(O)CCC(C)C2OC(=O)CC(O)CC(=O)CC(O)CC(O)CC(O)CC(O)CC3(O)CC(O)C(C(=O)NCCc4ccccn4)C(CC(OC4OC(C)C(O)C(N)C4O)/C=C/C=C/C=C/C=C\C=C/C=C/C=C/C2C)O3)cc1 (centres undefined) | 0.643 | 2.16 | 2.29 | 9.71 | 1.63 | > 50 | 0.0398 | 0.144 | 0.841 | 1.53 | 0.118 | 0.361 | 0.551 |  | > 50 | 2.73
O=C(NCc1cccs1)OC1CC2CCC1C2 (centres undefined) |  | > 100 |  | > 100 |  | > 100 |  | > 100 |  | > 100 |  | > 100 |  | > 100 | > 100 | 
COc1ccc(OC)c(-c2cc(C(=O)O)c3cc4ccccc4cc3n2)c1 |  | > 100 |  | > 100 |  | > 100 |  | > 100 |  | > 100 |  | > 100 |  |  | > 100 | 
[O]=[W](=[O])([OH])[OH] | > 100 | > 100 | > 100 | > 100 | > 100 | > 100 | > 100 | > 100 | > 100 | > 100 | > 100 | > 100 | > 100 | > 100 | > 100 | > 100
Cc1cc2c(=O)c3ccccc3oc2c(C#N)c1C |  |  |  |  |  | > 100 |  | > 100 |  | > 100 |  | > 100 |  | > 100 |  | 
C(=C\c1nc2ccccc2s1)/c1ccc(N2CCOCC2)s1 | 61.7 | > 100 | 43.3 | > 100 | > 100 | > 100 | 72 | > 100 | 33.4 | > 100 | 33.7 | > 100 | 80.5 | > 100 | > 100 | 53.1
N#C/C(=C\c1ccc([N+](=O)[O-])s1)c1nc2cc(Br)ccc2s1 | 0.248 | 0.733 | 0.152 | 0.335 | 0.269 | 0.844 | 0.134 | 0.291 |  |  | 2.68 | > 100 | 0.142 | 0.461 | 0.638 | 0.236

SMILES | GI50 [1] [µM] | TGI [1] [µM] | GI50 [2] [µM] | TGI [2] [µM] | GI50 [3] [µM] | TGI [3] [µM] | GI50 [4] [µM] | TGI [4] [µM] | GI50 [5] [µM] | TGI [5] [µM] | GI50 [6] [µM] | TGI [6] [µM] | GI50 [7] [µM] | TGI [7] [µM] | TGI [8] [µM] | GI50 [8] [µM]
NCC(=O)NC(CO)C(=O)O (centres undefined) |  | > 100 |  | > 100 |  | > 100 |  | > 100 |  | > 100 |  | > 100 |  | > 100 | > 100 | 
Cc1nc2sc(C(=O)Nc3cccc(Cl)c3C)c(N)c2cc1C(=O)c1ccccc1 | 0.176 | 1.37 | 1.28 | > 50 | 0.293 | 5.02 | 0.811 | > 50 | 0.344 | > 50 | 0.296 | > 50 | 0.408 | > 50 | 0.915 | 0.159
O=C(c1ccncc1)N1CCN(C2=NS(=O)(=O)c3ccccc3N2c2ccccc2)CC1 | 32.1 | > 100 | 17.1 | 42.4 | 30.3 | > 100 | 23.6 | 51.8 | 11.1 | 53.6 | 7.37 | 37.2 | 36.4 | > 100 | 22.8 | 3.85
COc1cc([N+](=O)[O-])c(OC)cc1-c1nc2n(c1/C(N)=N/C(=N)N)CCS2 | 33.5 | > 100 | > 100 | > 100 | > 100 | > 100 | 18.7 | 60.6 | 12.3 | > 100 | 25.1 | > 100 | > 100 | > 100 | > 100 | 26.2
Cc1ccc2nc(CC(=O)c3ccc4ccccc4c3)c(=O)[nH]c2c1 |  | > 100 |  | > 100 |  | > 100 |  | > 100 |  | > 100 |  | > 100 |  | > 100 | > 100 | 
O=C(Nc1ccc(Cl)cc1F)c1cc(Cl)ccc1O | 0.412 | > 20.5 | 0.429 | 7.21 | 2.41 | 5.92 | 0.256 | 1.17 | 0.532 | > 88 | 1.09 | 7.03 | 0.208 | 1.92 | 4.58 | 0.432
CC(=O)OC1CC(C)c2c(Cl)ncnc21 (centres undefined) | > 100 | > 100 | > 100 | > 100 | > 100 | > 100 | > 100 | > 100 | > 100 | > 100 | > 100 | > 100 | > 100 | > 100 | > 100 | > 100
Cc1cccc2c1NC(=O)C2(c1ccc(O)cc1)c1ccc(O)cc1 | < 0.01 | 14 | 18 | 59 | 0.0135 | 11.1 | 17.8 | 55.5 | 12.4 | > 100 | 17.9 | 40.1 | 13.1 | 78.8 | 45.8 | 17.7
CC(C)NCCCCCNc1cc(O)cc2cccnc12 | 2.43 | 9.37 | > 100 | > 100 | 1.88 | > 100 |  | > 100 | > 100 | > 100 | > 100 | > 100 | 85.2 | > 100 | > 100 | > 100
COc1cc(C2C(C(=O)OCc3ccccc3)=C(C)NC(C)=C2C(=O)OCc2ccccc2)cc(OC)c1OC | 4.99 | > 100 | 2.41 | > 100 |  |  |  |  | 2.79 | > 100 | 1.46 | > 100 | 2.22 | > 100 | > 100 | 3.99
CS(=O)(=O)N(CC(=O)O)Cc1ccccc1 |  | > 100 |  | > 100 |  | > 100 |  | > 100 |  | > 100 |  | > 100 |  |  | > 100 | 
Cc1cc(O)c(O)c(Oc2cc(C)cc(O)c2O)c1 |  | > 100 |  | 75.1 |  | 36.4 |  |  |  | 79.9 |  | 55.5 |  | > 100 | > 100 | 
Cc1nn(-c2ccccc2)c(C)c1/C=N/N1CCN(Cc2ccccc2)CC1 |  |  | 27.8 | 96.2 | 41 | > 100 |  |  | 52.4 | > 100 | 22.9 | 97.4 | 66.4 | > 100 | > 100 | 76.4
O=C1C(Cl)=C(Nc2cccc(O)c2)C(=O)N1c1ccc(Cl)cc1Cl |  |  |  |  | 28.2 | > 100 | 31.6 | 92 | 30.6 | > 100 | 32.8 | > 100 | 50.7 | > 100 |  | 
COc1ccc(C(=O)c2cc(OC)c(OC)c(OC)c2)cc1/C=C/C(=O)c1ccc2c(c1)OCO2 | 1.96 | 7.24 | 2.23 | 6.32 | 3.51 | > 100 | 2.38 | 6.61 |  |  | 2.28 | 5.84 |  |  |  | 
O=C(Nc1cccc(-n2cc(-c3ccncc3)c(-c3ccc(O)c(Cl)c3)n2)c1)c1ccc(N2CCOCC2)c(C(F)(F)F)c1 |  |  | > 50 | > 50 | 4.62 | > 50 | 2.8 | > 50 | 2.18 | > 50 | 0.982 | > 50 | 2.99 | > 50 | > 50 | 1.04
N=C(N)c1ccc(-c2ccc(-c3ccc(Cl)c(Cl)c3)o2)nc1 |  |  | 15.4 | 49.9 |  |  | 1.78 | 3.42 | 1.74 | 3.22 | 1.99 | 3.83 | 1.5 | 2.97 | 3.04 | 1.63
Cc1cn2c(/C=N/N=C(N)N)c(-c3cc(Cl)sc3Cl)nc2s1 |  |  |  |  |  |  |  |  | 0.908 | 1.63 | 0.887 | 1.83 |  |  |  | 
